{"source": "patent US8337856B2", "about": "“Methods of treatment using anti-ERBB antibody-maytansinoid conjugates” (Immunogen, Inc., priority 2000, dated 2012)", "origin": "cited, not measured here", "settings": "clinical trials discontinued"}
{"smiles": "COc1cc2cc(c1Cl)N(C)C(=O)C[C@H](OC(=O)[C@H](C)N(C)C(C)=O)[C@]1(C)O[C@H]1[C@H](C)[C@@H]1C[C@@](O)(NC(=O)O1)[C@H](OC)/C=C/C=C(\\C)C2", "note": "[maytansine, Maytansine]", "values": [{"measurement": "adverse effects in clinical trials", "value": "serious adverse effects on the central nervous system and gastrointestinal system"}]}
